# How the values were obtained:
# [1] = system: Calu-6 subcutaneous xenografts; test: subcutaneous Calu-6 xenograft with tumor-localized irradiation; format: in vivo, mouse; conditions: for mean tumor volume: NU5455 30 mg/kg oral single dose 30 min before 3.3 Gy
# Method: Subcutaneous non–small cell lung cancer xenografts were generated in CD-1 nude or BALB/c nude mice using A549 and Calu-6 cells, respectively, as previously described ([53]). When tumors reached 100 mm^3, mice were randomized into 4 groups (n = 7–9 per group) to receive (a) vehicle (orally) 30 minutes before mock radiation, (b) NU5455 (30 mg/kg orally) 30 minutes before mock radiation, (c) targeted tumor radiation at a single dose of 3.3 or 10 Gy, or (d) NU5455 (30 mg/kg orally) 30 minutes before 3.3 Gy or 10 Gy targeted tumor radiation. For targeted irradiation of subcutaneous tumors, anesthetized mice were restrained in a lead-shielded container with only the tumor exposed, and x-ray radiation applied using an RS320 irradiation system (Gulmay Medical) at a dose rate of 1.82 Gy/min.
# Establishment of subcutaneous NSCLC xenograft models
# NSCLC subcutaneous xenografts were generated as previously described ( 53). Briefly, 6-8 week-old female BALB/c nude or CD-1 nude mice (Charles River Laboratories) were anaesthetized with 2% isoflurane (Zoetis), and 5 x 10^6 Calu-6 or A549 cells in 50% Matrigel (BD Biosciences), respectively, were subcutaneously injected into a single site on the back of the mouse. Mouse weights and tumor volumes (1/2 x length x width x depth) were measured three times a week.
# Targeted radiotherapy in subcutaneous and orthotopic NSCLC xenograft models When subcutaneous xenografts reached 100 mm3, mice were randomized into four groups (n = 7 - 11/group): (i) N-Methyl-2-pyrrolidone (NMP): 30% Encapsin : PEG400 (1:6:3 v/v/v) vehicle p.o. 30 minutes prior to mock radiation. (ii) NU5455 (30 mg/kg p.o.) 30 minutes prior to mock radiation. (iii) Targeted tumor radiation at a single dose of 3.3 or 10 Gy. (iv) NU5455 (30 mg/kg p.o.) 30 minutes prior to 3.3 Gy or 10 Gy targeted tumor radiation. For targeted irradiation of subcutaneous tumors, anaesthetized mice were restrained in a lead -shielded container with only the tumor exposed. X -ray radiation was applied using an RS320 irradiation system ( Gulmay Medical) at a dose rate of 1.82 Gy/minute. Three animals from each group were humanely killed at 5 and/or 24 hours after irradiation, and the tumors processed for immunohistochemistry (IHC). […]
# Immunohistochemistry in lung tumor xenografts and normal lung tissue
# Tissues were fixed in 4% paraformaldehyde (PFA) and paraffin -embedded. Sections were stained using primary antibodies against γH2AX (JBW301, 1:1000, Millipore #05-636), 53BP1 (1:500, Cell Signaling #4937), and cleaved caspase 3 (CC3, 1:600, Cell Signaling #9661) and the EnVision G2 Doublestain System (Dako #K5361), according to the manufacturer’s instructions. One tissue section from each of 3 mice per group was examined, and the whole
# [2] = system: Calu-6 subcutaneous xenografts; test: subcutaneous Calu-6 xenograft with fractionated radiation (4 × 5 Gy); format: in vivo, mouse; conditions: 30 mg/kg oral 30 min before and 5 h after each of 4 × 5 Gy; CD-1 nude mice
# Method: To examine the effect of NU5455 treatment on efficacy versus a late radiation toxicity, a total dose of 20 Gy of thoracic radiation was administered either to CD-1 nude mice bearing subcutaneous Calu-6 tumors or to non–tumor-bearing C57BL/6 mice, as four 5-Gy fractions given on days 1, 4, 7, and 10. This fractionated regimen was adapted from an existing method ([30]), resulting in focal areas of lung fibrosis at 24 weeks following treatment, but at a level that would enable any exacerbation of fibrosis to be readily detected.
# Figure 5 NU5455 augments the effect of fractionated radiotherapy in Calu-6 tumors without enhancing late radiation damage to the lung. (A) Mean tumor volume of mice bearing Calu-6 subcutaneous xenografts treated with localized radiation (4 × 5 Gy on days 1, 4, 7, and 10) with either NU5455 (30 mg/kg orally) or vehicle 30 minutes before and 5 hours after each dose of IR (3–5 mice per group). The time taken to reach 2 times the tumor volume at the start of treatment (RTV2) was also assessed. […] Samples were scored using the modified Ashcroft system on a scale of 0 to 8 (5–9 mice per group). […] Statistical significance was assessed using a log-rank test (A) and 1-way ANOVA (B). *P < 0.05, **P < 0.01, ****P < 0.0001.
smiles,measurement,setting,value
CN(C(=O)CN1CCOCC1)c1ccc2sc3c(-c4cccc5c(=O)cc(N6CC7CCC(C6)O7)oc45)cccc3c2c1 [NU5455],adverse effect or impact on body weight,[1]; NU5455 30 mg/kg oral + 10 Gy,without any adverse effect or impact on body weight
same,antitumor response,[1]; NU5455 30 mg/kg oral + 10 Gy,regression of Calu-6 tumors was induced
same,mean tumor volume,[1]; day 0,104 mm^3
same,mean tumor volume,[1]; day 6,102 mm^3
same,mice having no evidence of tumor at the end of the experiment,"[1]; day 38, NU5455 30 mg/kg oral + 10 Gy",3 of 6
same,"radiation-induced γH2AX foci remaining, fold greater with concomitant NU5455","[1]; tumor, 5 hours after 3.3 Gy, 30 mg/kg oral",3.0 fold
same,time taken for tumors to double in volume (RTV2),[2],increase the time taken

# Reference: publication PMC6934184, “Selective DNA-PKcs inhibition extends the therapeutic index of localized radiotherapy and chemotherapy” (The Journal of Clinical Investigation, 2019)
